Data reported in US20220298138A1, “ENZYME INHIBITORS” (KALVISTA PHARMACEUTICALS LIMITED, priority 2019, published 2022).

What follows are compounds tested against T1, Human Factor XIIa (Homo sapiens, UniProt P00748) (assay: Factor XIIa inhibitory activity in vitro (fluorogenic substrate H-DPro-Phe-Arg-AFC)). Conditions: 25° C., class symbols, read-out: Human FXIIa IC50.
T1 construct: purchased Enzyme Research Laboratories
T1 sequence (P00748 373-615 limits assumed): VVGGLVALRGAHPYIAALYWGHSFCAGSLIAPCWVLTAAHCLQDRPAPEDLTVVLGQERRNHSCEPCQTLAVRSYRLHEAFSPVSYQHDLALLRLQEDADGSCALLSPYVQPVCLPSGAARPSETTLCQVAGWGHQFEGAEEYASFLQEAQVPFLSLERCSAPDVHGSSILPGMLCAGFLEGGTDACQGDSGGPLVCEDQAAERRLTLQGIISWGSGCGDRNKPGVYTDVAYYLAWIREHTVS
Format: biochemical
Method: Determination of the % Inhibition for FXIIa
Human Factor XIIa (Enzyme Research Laboratories) was incubated at 25° C. with the fluorogenic substrate H-DPro-Phe-Arg-AFC and various concentrations of the test compound. Residual enzyme activity (initial rate of reaction) was determined by measuring the change in […] at 410 nm and the IC50 value for the test compound was determined.

| IC50 | Structure (SMILES) |
| --- | --- |
| 3 to 10 µM | Cc1nocc1C(=O)N[C@@H](Cc1ccc(F)c(F)c1)C(=O)NCc1ccc2c(N)nccc2c1 [Example 0.21] |
| 10 to 40 µM | Nc1nccc2cc(CNC(=O)[C@H](Cc3ccc(F)c(F)c3)NC(=O)C3(C(F)(F)F)CC3)ccc12 [Example 0.72] |
| 10 to 40 µM | CC[C@H](NC(=O)[C@@H](CCc1ccccc1)NC(=O)OC(C)(C)C)C(=O)NCc1ccc2c(N)nccc2c1 [Example 6.04] |
| 0.28 to 1 µM | Nc1nccc2cc(CNC(=O)[C@@H]3CCCN3C(=O)[C@H](N)CCc3ccccc3)ccc12 [Example 17.02] |
| 10 to 40 µM | C[C@@H]1CCC[C@H](C)N1CC(=O)N[C@@H](Cc1ccc(F)c(F)c1)C(=O)NCc1ccnc(N)c1 [Example 34.04] |
| 10 to 40 µM | C[C@@H]1CCC[C@H](C)N1CC(=O)N1CC[C@H](C(=O)NCc2ccc3c(N)nccc3c2)C1 [Example 32.06] |
| 3 to 10 µM | CC(C)c1cc(C(=O)N[C@@H](Cc2ccc(F)c(F)c2)C(=O)NCc2ccc3c(N)nccc3c2)no1 [Example 0.75] |
| 3 to 10 µM | Nc1nccc2cc(CNC(=O)[C@H](Cc3ccc(F)c(F)c3)NC(=O)c3cccc(N4CCCC4=O)c3)ccc12 [Example 0.81] |
| 10 to 40 µM | CC(C)c1cc(C(=O)N[C@@H](Cc2ccc(F)c(F)c2)C(=O)NCc2ccc3c(N)nccc3c2)n(C)n1 [Example 0.90] |
| 10 to 40 µM | C[C@H](NC(=O)[C@@H](CCc1ccccc1)NS(C)(=O)=O)C(=O)NCc1cnc2[nH]cc(Cl)c2c1 [Example 9.21] |
| 0.1 to 0.279 µM | CC(C)N1CCCC[C@@H]1C(=O)N[C@@H](Cc1ccc(F)c(F)c1)C(=O)NCc1ccc2c(N)nccc2c1 [Example 0.02] |
| 10 to 40 µM | Nc1nccc2cc(CNC(=O)[C@H](Cc3ccc(F)c(F)c3)NC(=O)c3cccs3)ccc12 [Example 0.82] |
| 10 to 40 µM | Nc1nccc2cc(CNC(=O)[C@H](Cc3ccc(F)c(F)c3)NC(=O)CN3CCOc4ccccc4C3)ccc12 [Example 3.33] |
| 10 to 40 µM | C[C@@H]1CCC[C@H](C)N1CC(=O)N1CCC[C@H]1C(=O)NCc1ccc2c(N)nccc2c1 [Example 32.02] |
| 10 to 40 µM | COc1ccc(OCCC(=O)N[C@@H](Cc2ccc(F)c(F)c2)C(=O)NCc2ccc3c(N)nccc3c2)cc1 [Example 20.01] |
| 10 to 40 µM | COc1cnccc1C(=O)N[C@@H](Cc1ccc(F)c(F)c1)C(=O)NCc1ccc2c(N)nccc2c1 [Example 0.84] |
| 10 to 40 µM | Nc1nccc2cc(CNC(=O)C[C@@H](N)Cc3ccccc3)ccc12 [Example 24.03] |
| 10 to 40 µM | C[C@H](NC(=O)[C@@H](CCc1ccccc1)NC(=O)c1ccccc1)C(=O)NCc1ccc2c(N)nccc2c1 [Example 6.26] |
| 3 to 10 µM | Nc1nccc2cc(CNC(=O)[C@H](Cc3ccc(F)c(F)c3)NC(=O)c3ccc[nH]c3=O)ccc12 [Example 0.13] |
| 3 to 10 µM | Nc1nccc2cc(CNC(=O)[C@H](Cc3ccc(F)c(F)c3)NC(=O)CCS(=O)(=O)c3ccccc3)ccc12 [Example 0.41] |
| 10 to 40 µM | Cn1nc(C(C)(C)C)cc1C(=O)N[C@@H](Cc1ccc(F)c(F)c1)C(=O)NCc1ccc2c(N)nccc2c1 [Example 0.88] |
| 0.1 to 0.279 µM | C[C@@H]1CCC[C@H](C)N1CC(=O)N[C@@H](Cc1c[nH]c2ccccc12)C(=O)NCc1ccc2c(N)nccc2c1 [Example 3.21] |

| IC50 | Structure (SMILES) |
| --- | --- |
| 3 to 10 µM | Cc1cccnc1C(=O)N[C@@H](Cc1ccc(F)c(F)c1)C(=O)NCc1ccc2c(N)nccc2c1 [Example 0.50] |
| 0.28 to 1 µM | CC(C)N(CC(=O)N[C@@H](Cc1ccc(F)c(F)c1)C(=O)NCc1ccc2c(N)nccc2c1)C(C)C [Example 3.09] |
| 10 to 40 µM | CC(C)N1CCC[C@@H]1C(=O)N[C@@H](Cc1ccc(F)c(F)c1)C(=O)NCc1cccc2[nH]ccc12 [Example 44.03] |
| 0.1 to 0.279 µM | C[C@@H]1CCC[C@H](C)N1CC(=O)N[C@@H](Cc1ccc(F)cc1)C(=O)NCc1ccc2c(N)nccc2c1 [Example 3.14] |
| 10 to 40 µM | CC1CCCC(C)N1CC(=O)N[C@@H](Cc1ccc(F)c(F)c1)C(=O)NCc1ccnc(N)c1 (stereo partly shown) [Example 3.102] |
| 10 to 40 µM | N#Cc1ccc(C(=O)N[C@@H](Cc2ccc(F)c(F)c2)C(=O)NCc2ccc3c(N)nccc3c2)nc1 [Example 0.11] |
| 10 to 40 µM | Nc1nccc2cc(CNC(=O)[C@H](Cc3ccc(F)c(F)c3)NC(=O)Cc3cccnc3)ccc12 [Example 3.23] |
| 10 to 40 µM | Nc1nccc2cc(CNC(=O)[C@H](Cc3ccc(F)c(F)c3)NC(=O)c3ccc4ncccc4n3)ccc12 [Example 0.31] |
| 3 to 10 µM | C[C@@H]1CCC[C@H](C)N1CC(=O)N[C@@H](Cc1ccc(F)c(F)c1)C(=O)NCc1cccc2[nH]ccc12 [Example 34.03] |
| 0.28 to 1 µM | CC(C)N[C@H](CCc1ccccc1)C(=O)NCC(=O)NCc1ccc2c(N)nccc2c1 [Example 6.07] |
| 3 to 10 µM | Cc1cc2ncc(C(=O)N[C@@H](Cc3ccc(F)c(F)c3)C(=O)NCc3ccc4c(N)nccc4c3)c(C)n2n1 [Example 0.36] |
| 10 to 40 µM | CC(C)N1CCC[C@@H]1C(=O)N[C@@H](Cc1ccc(F)c(F)c1)C(=O)NCc1cnc2[nH]ccc2c1 [Example 44.04] |
| 10 to 40 µM | C[C@@H]1CCC[C@H](C)N1C(=O)N[C@H](CC(=O)NCc1ccc2c(N)nccc2c1)Cc1ccccc1 [Example 39.07] |
| 3 to 10 µM | Nc1nccc2cc(CNC(=O)[C@H](Cc3ccc(F)c(F)c3)NC(=O)c3cncnc3)ccc12 [Example 0.20] |
| 0.28 to 1 µM | C[C@@H]1CCC[C@H](C)N1[C@H](C)C(=O)N[C@@H](Cc1ccc(F)c(F)c1)C(=O)NCc1ccc2c(N)nccc2c1 [Example 5.105] |
| 10 to 40 µM | Nc1nccc2cc(CNC(=O)[C@H](Cc3ccc(F)c(F)c3)NC(=O)CCCOCc3ccccc3)ccc12 [Example 0.24] |
| 10 to 40 µM | N#Cc1cccc(CC(=O)N[C@@H](Cc2ccc(F)c(F)c2)C(=O)NCc2ccc3c(N)nccc3c2)c1 [Example 3.25] |
| 10 to 40 µM | Nc1nccc2cc(CNC(=O)[C@H](Cc3ccc(F)c(F)c3)NC(=O)c3ccccc3)ccc12 [Example 0.34] |
| 3 to 10 µM | COc1cc(C(=O)N[C@@H](Cc2ccc(F)c(F)c2)C(=O)NCc2ccc3c(N)nccc3c2)ccc1F [Example 0.58] |
| 10 to 40 µM | CC(C)(C)OC(=O)N[C@H](CCc1ccccc1)C(=O)NC(C)(C)C(=O)NCc1ccc2c(N)nccc2c1 [Example 6.03] |
| 0.28 to 1 µM | Nc1nccc2cc(CNC(=O)CNC(=O)[C@H](N)CCc3ccccc3)ccc12 [Example 6.02] |
| 10 to 40 µM | Cc1ccnn1CCC(=O)N[C@@H](Cc1ccc(F)c(F)c1)C(=O)NCc1ccc2c(N)nccc2c1 [Example 20.03] |

| IC50 | Structure (SMILES) |
| --- | --- |
| 3 to 10 µM | C[C@H](NC(=O)CN1[C@H](C)CCC[C@@H]1C)C(=O)NCc1ccc2c(N)nccc2c1 [Example 39.02] |
| 10 to 40 µM | CC(C)N1CCC[C@@H]1C(=O)N[C@@H](Cc1ccc(F)c(F)c1)C(=O)NCc1ccc2[nH]ncc2c1 [Example 44.05] |
| 10 to 40 µM | COc1ccc(CNC(=O)[C@H](C)NC(=O)[C@@H](CCc2ccccc2)NC(C)C)cc1Cl [Example 9.11] |
| 0.1 to 0.279 µM | C[C@@H]1CCC[C@H](C)N1CC(=O)N[C@@H](Cc1cccc(Cl)c1)C(=O)NCc1ccc2c(N)nccc2c1 [Example 3.13] |
| 3 to 10 µM | Nc1nccc2cc(CNC(=O)[C@H](Cc3ccc(F)c(F)c3)NC(=O)c3cccc(-n4cccn4)c3)ccc12 [Example 0.05] |
| 3 to 10 µM | CC[C@H](NC(=O)CN1[C@H](C)CCC[C@@H]1C)C(=O)NCc1ccc2c(N)nccc2c1 [Example 3.22] |
| 10 to 40 µM | CCOC(=O)c1cn(-c2ccc(OC)c(F)c2CNC(=O)[C@H](C)NC(=O)[C@@H](CCc2ccccc2)NC(C)C)nn1 [Example 9.19] |
| 3 to 10 µM | Nc1nccc2cc(CNC(=O)[C@@H]3CCCN(C(=O)[C@H](N)CCc4ccccc4)C3)ccc12 [Example 17.04] |
| 10 to 40 µM | Nc1nccc2cc(CNC(=O)[C@H](Cc3ccc(F)c(F)c3)NC(=O)c3nccc4ccccc34)ccc12 [Example 0.80] |
| 10 to 40 µM | Nc1nccc2cc(CNC(=O)[C@H](Cc3ccc(F)c(F)c3)NC(=O)Cc3nc(-c4cccnc4)n[nH]3)ccc12 [Example 3.32] |
| 0.28 to 1 µM | CC(C)N1CCC[C@@H]1C(=O)N[C@@H](Cc1ccc(F)c(F)c1)C(=O)NCc1ccc2c(N)nccc2c1 [Example 44.01] |
| 10 to 40 µM | CC(O)[C@H](NC(=O)CN1[C@H](C)CCC[C@@H]1C)C(=O)NCc1ccc2c(N)nccc2c1 (stereo partly drawn) [Example 39.06, (2S)—N-[(1-Aminoisoquinolin-6-yl)methyl]-2-{2-[(2R,6S)-2,6-dimethylpiperidin-1-yl]acetamido}-3-hydroxybutanamide] |
| 10 to 40 µM | Nc1nccc2cc(CNC(=O)[C@H](Cc3ccc(F)c(F)c3)NC(=O)c3ccc(-c4cncnc4)cc3)ccc12 [Example 0.27] |
| 1 to 3 µM | Nc1nccc2cc(CNC(=O)[C@H](Cc3ccc(F)c(F)c3)NC(=O)CN3CCCCCC3)ccc12 [Example 3.38] |
| 0.28 to 1 µM | CC1(C)CCCN1CC(=O)N[C@@H](Cc1ccc(F)c(F)c1)C(=O)NCc1ccc2c(N)nccc2c1 [Example 3.18] |
| 10 to 40 µM | C[C@@H]1CCC[C@H](C)N1CC(=O)N[C@@H](Cc1ccc(F)c(F)c1)C(=O)NCc1ccc2c(cnn2C)c1 [Example 34.08] |
| 3 to 10 µM | CN[C@H](CCc1ccccc1)C(=O)N[C@@H](Cc1ccccc1)C(=O)NCc1ccc2c(N)nccc2c1 [Example 6.08] |
| 3 to 10 µM | CN1CCN(c2cccc(C(=O)N[C@@H](Cc3ccc(F)c(F)c3)C(=O)NCc3ccc4c(N)nccc4c3)c2)CC1 [Example 0.08] |
| 10 to 40 µM | Nc1nccc2cc(CNC(=O)[C@H](Cc3ccc(F)c(F)c3)NC(=O)CN3CCCC3=O)ccc12 [Example 3.37] |
| 10 to 40 µM | Nc1nccc2cc(CNC(=O)[C@H](Cc3ccc(F)c(F)c3)NC(=O)c3cccnc3N3CCOCC3)ccc12 [Example 0.45] |
